This is an account of results in patent US9018263B2, “Antimicrobial compositions comprising trimethylene glycol oligomer and methods of using the compositions” (E I du Pont de Nemours and Company, priority 2010, dated 2015).

Experiment [1] relates to Escherichia coli ATCC 8739. Kind of experiment: Example 4: di(1,3-propanediol) and DPG, plate counts. The experiment is classed as cell-based. To be noted: for CFU/mL: E. coli inoculum. As for the experimental part: (§1) Two test microorganisms were used, the Gram-negative bacterium, Escherichia coli ATCC 8739, and the Gram-positive bacterium, Staphylococcus aureus ATCC 6538. These microrganisms were grown overnight in 10 mL Tryptic soy broth (TSB) starter cultures, and then inoculated into Klett flasks containing 30 mL of TSB. The Klett flasks were incubated on an incubator shaker at 37° C. until the desired Klett reading was obtained (early stationary phase). Each test inoculum was prepared by adding 0.1 mL of the Klett flask culture to 9.9 mL of Mueller-Hinton II Broth (cation-adjusted) or M9 Broth.
(§2) The unfractionated mixture, each fraction, a control, and DPG (comparative example) were analyzed for antibacterial or bacteristatic properties against E. coli according to the protocol shown below. Numbers in exponential format are indicated with “E”, i.e. 2.2×10^+9 are written as 2.2E+09.

Experiment [2] relates to Staphylococcus aureus ATCC 6538. Described as above. The experiment is classed as cell-based. The settings on record: for CFU/mL: S. aureus inoculum; for effect on gram positive bacteria (in words): S. aureus. The procedure:
[The source words this procedure for another target and reports this target under the same test.] as §1, §2

Turning to 1,2-dipropaneglycol [DPG], the CFU/mL in experiment [1] (Conc. 0.1%) was determined as 2.1E+08 CFU/mL; in experiment [1] (Conc. 0.5%), 2.9E+08 CFU/mL; in experiment [1] (Conc. 1%), 3.7E+08 CFU/mL; in experiment [1] (Conc. 10%) it was 1.5E+05 CFU/mL; in experiment [2] (Conc. 0.1%) it was 2.0E+07 CFU/mL; in experiment [2] (Conc. 0.5%), 2.0E+07 CFU/mL. Further, the CFU/mL is reported as 2.0E+07 CFU/mL in experiment [2] (Conc. 1%) and 2.1E+07 CFU/mL in experiment [2] (Conc. 10%). Moreover, the “effect on gram positive bacteria (in words)” value in experiment [2] (0.1 to 10%) is given as “little or no antibacterial or bacteristatic effect”.

On to `OCCCOCCCO` [PDO Dimer, di(1,3-propanediol)], for which the CFU/mL in experiment [1] (Conc. 0.1%) is 3.2E+08 CFU/mL; in experiment [1] (Conc. 0.5%), 7.6E+02 CFU/mL; in experiment [1] (Conc. 1%), <10 CFU/mL; in experiment [2] (Conc. 0.1%) it was 2.7E+07 CFU/mL; in experiment [2] (Conc. 0.5%) it was 1.4E+04 CFU/mL; in experiment [2] (Conc. 1%) it was 1.6E+03 CFU/mL. The “effect on gram negative bacteria (in words)” value in experiment [1] (E. coli, concentrations of 0.5% and 1%) is listed as “kills or inhibits the growth”. Also, the “effect on gram positive bacteria (in words)” value in experiment [2] (concentrations of 0.5% and 1%) is recorded as “kills or inhibits the growth”.
